Reference: patent US20080027131A1, “USE OF BENZO-FUSED HETEROCYCLE SULFAMIDE DERIVATIVES FOR THE TREATMENT OF OBESITY” (priority 2005, published 2008)

Columns and labels:
AKR/J Obese Mice = AKR/J Obese Mice In Vivo Assay (Example 13)
Procedure: AKR/J mice are known in the art to be susceptible to diet-induced obesity. (Rossmeisl M, Rim J S, Koza R A, Kozak L P. Diabetes. 2003 August; 52(8):1958-66.)
Male AKR/J mice (˜20 gram) at 4-5 weeks of age (Jackson Laboratories, Bar Harbor, Me.) were housed individually in a shoe-box cage at 21° C. with a 12-h light-dark cycle. The mice were fed with a high fat diet for 8 weeks to induce obesity. The composition of the diet by energy was 45% energy as fat, 20% as protein, and 35% as carbohydrate (Research Diets, D12451, New Brunswick, N.J.).
Obese mice with body weights between 35 and 46 grams were selected for the studies. Mice were randomized according to body weight into treatment groups at 13 weeks of age. The mice were orally gavaged once daily (0.2 ml at 1500-1700 hour) with vehicle control (0.5% methylcellulose, pH7.4) or vehicle containing Compound #8 (300 mg/kg). The body weights and food intake of the mice were monitored every few days. On day 11, the mice were anaesthetized with sodium pentobarbital (1 ml/kg, i.p, Sleepaway, Fort Dodge, Iowa). White adipose tissue (WAT) (retroperitoneal fat) and skeletal muscle (gastrocnemius and soleus muscle) were dissected and weighed.
Data shown below are expressed as mean and standard error calculated using 9-10 mice per treatment group. The 2 tailed Student's t-Tests were used for statistic analysis. All animal studies complied with the guideline of the Institutional Animal Care and Use Committee.

AKR/J mice = assay: Obesity In Vivo Assays in diet-induced obese AKR/J mice (Example 14, first study and second dose response study); conditions: for Intake of high fat diet (g) Day 0-3 / Intake of high fat diet (g) Day 4-7 / Weight loss (g) Day 4 / Weight loss (g) Day 8 / Weight loss (g) Day 10 / Brown Adipose Tissue / Epididymal fat / Muscle / Retroperitoneal fat / Total intake of high fat diet (g) Day 1-10 / Weight loss (g) Day 7: mean ± SE; for Ratio (fat/muscle): total weights of inguinal fat and retroperitoneal fat/muscle weight
Excerpt: Compound #8 was suspended in 0.5% Methocel using a hand held homogenizer to reduce the particle size and a magnetic stir bar and stir plate to keep the particles homogeneously suspended throughout the dosing period. 0.5% Hydroxypropyl Methylcellulose (Methocel) used as vehicle/control.
Male AKR/J mice weighing between 35 to 46 grams were used for weight loss studies. AKR/J mice are susceptible to diet-induced obesity. Male AKR/J mice (average body weight of about 20 grams) at 4 to 5 weeks of age (obtained from Jackson Laboratories, Bar Harbor, Me.) were group housed, five per cage, in a shoebox cage at 21° C. with a 12 h light dark cycle. All of the mice were quarantined for a period of one week before transfer to the animal procedure room. The mice were fed a high fat diet for 8 weeks to induce obesity. The composition of the diet by energy was 45% energy as fat, 20% as protein, and 35% as carbohydrate (obtained from Research Diets, D12451, New Brunswick, N.J.). As a non-obese control, an additional group of mice that were age- and weight-matched was fed with a low fat diet (obtained from Research Diets, D12450B, New Brunswick, N.J.). Only mice that developed obesity, defined as a body weight between 35 and 46 grams, were selected for the weight loss studies. Animals were separated and single housed at least three days prior to the drug treatments to allow acclimation to the new surroundings.
The assay comprised two separate studies: In the first study, 10 mice were given vehicle control of 0.5% Methocel; 10 mice were treated with 300 mg/kg Compound #8 in vehicle; and 10 mice were dosed as positive control with 10 mg/kg sibutramine (a weight loss agent) in vehicle. In the second study, 48 mice were allocated into 4 treatment groups of 12 mice each. The four groups were then treated with 0.5% Methocel (vehicle), 10 mg/kg Compound #8, 30 mg/kg Compound #8, and 100 mg/kg Compound #8 in vehicle, respectively.
The mice were orally gavaged once daily (at 1500-1700 hour) with vehicle control (0.5% methocel, pH7.4) or vehicle containing Compound #8 for 10 days. The dosing volume was 5 mL/kg body weight (0.2 mL for 40 gram mice). Body weight and food intake of mice were monitored periodically throughout the studies. On Day 11, the mice were fasted for 4 hr during light cycle (food was removed 0600-1000 hour). A necropsy was done 18 hours after last dosing. The mice were anaesthetized with sodium pentobarbital (1 ml/kg, intraperitoneal [i.p.] injection, SleepAway, Fort Dodge, Iowa) and blood was drawn via cardiac puncture using an 1 mL syringe and collected into heparinized tubes. […] Plasma samples were obtained by centrifuging whole blood at 2000˜3000 g for 10˜20 minutes at 4° C. and stored at −20° C. for further measurement of insulin, HDL, LDL, and total cholesterol and triglyceride.
Blood glucose levels were measured with a glucometer (OneTouch UltraSmart, Lifescan, Milpitas, Calif.) after collecting two microliters of blood through tail puncture. Plasma insulin concentrations were measured by using rat/mouse insulin enzyme-linked immunosorbent assay (ELISA) kit (EZRMI-13K, LINCO Research, St. Charles, Mo.). Blood samples were diluted 1:4 in charcoal stripped mouse serum that was included in the ELISA kit. The rest of the procedure followed the manufacturers instruction. The total fluorescence was detected using an Orion 1 Microplate Luminometer (Berthold Detection Systems, Pforzheim, Germany). Plasma total cholesterol, high density lipoprotein (HDL), low density lipoprotein (LDL) and triglyceride concentrations were measured by using a Bayer ADVIA 1650 blood chemistry analyzer (Bayer HealthCare LLC, Diagnostic Division, Tarrytown, N.Y.). […]

[1] = 300 mg/kg oral, 10-day treatment
[2] = first study, 300 mg/kg oral gavage once daily
[3] = first study, 300 mg/kg, after 10 days of dosing
[4] = second study, 10 mg/kg oral once daily
[5] = second study, 30 mg/kg oral once daily
[6] = second study, 100 mg/kg oral once daily
[7] = first study, 10 mg/kg, after 10 days of dosing
[8] = first study, positive control 10 mg/kg

With `NS(=O)(=O)NCC1CCc2ccccc2O1` (stereo not shown) the melting point was 100 to 101 °C.

In the case of `NS(=O)(=O)NC[C@H]1COc2cc(Cl)ccc2O1` [Compound #8, (2S)-(−)-N-(6-Chloro-2,3-dihydro-benzo[1,4]dioxin-2-ylmethyl)-sulfamide], the “Weight Loss” value (AKR/J Obese Mice; 300 mg/kg oral gavage once daily, 10-day treatment, mean ± standard error, 9-10 mice) is reported as -3.3 ± 0.34 g, the “Food Intake (g) Day 4-10” value (AKR/J Obese Mice; 300 mg/kg oral gavage once daily, Day 4-10, mean ± standard error) is reported as 16.2 ± 0.68 g and the “Retroperitoneal Fat Weight” value (AKR/J Obese Mice; 300 mg/kg oral gavage once daily, dissected day 11, mean ± standard error) is reported as 0.47 ± 0.04 g. For the same molecule, the “Skeletal Muscle Weight” value (AKR/J Obese Mice; 300 mg/kg oral gavage once daily, gastrocnemius and soleus, day 11, mean ± standard error) was 0.30 ± 0.01 g, the “changes in skeletal muscle mass (in words)” value (AKR/J Obese Mice; [1]) was “no significant changes” and the “decrease of fat to lean mass ratio (white adipose tissue/skeletal muscle) compared to vehicle treated mice” value (AKR/J Obese Mice; [1]) was 16.8%. The “reduction of retroperitoneal fat relative to vehicle treated mice” value (AKR/J Obese Mice; [1]) was 26.6%, the “fat to lean mass ratio (white adipose tissue/skeletal muscle)” value (AKR/J Obese Mice; 300 mg/kg oral, 10-day treatment, vehicle 8.9±0.4, p<0.05) was 7.4±0.5 and the “weight loss compared to vehicle treated mice (in words)” value (AKR/J Obese Mice; 300 mg/kg oral, after 10-day treatment) was “greater weight loss”. For the same molecule, the “food intake relative to control animals (in words)” value (AKR/J Obese Mice; 300 mg/kg oral, day 4 to day 10) was “reduction of food intake”, the gastric emptying (AKR/J Obese Mice; 300 mg/kg oral, p<0.05) was “delay gastric emptying at a statistically significant level” and the “Intake of high fat diet (g) Day 0-3” value (AKR/J mice; [2]) was 10.0 ± 0.4 g. The “Intake of high fat diet (g) Day 4-7” value (AKR/J mice; [2]) was 10.6 ± 0.4 g, the “Weight loss (g) Day 4” value (AKR/J mice; [2]) was -0.3 ± 0.3 g and the “Weight loss (g) Day 8” value (AKR/J mice; [2]) was -2.5 ± 0.3 g. The “Weight loss (g) Day 10” value (AKR/J mice; [2]) was -3.3 ± 0.3 g, the “weight loss compared with vehicle treated mice (in words)” value (AKR/J mice; [3]) was “significant weight loss” and the “white adipose tissue weight compared with vehicle treatment (in words)” value (AKR/J mice; [3]) was “reduced white adipose tissue weight”. For the same molecule, the “Brown Adipose Tissue” value (AKR/J mice; [3]) was 0.22 ± 0.09 g, the “Epididymal fat” value (AKR/J mice; [3]) was 1.73 ± 0.10 g and the “Muscle” value (AKR/J mice; [3]) was 0.30 ± 0.01 g. For the same molecule, the “Retroperitoneal fat” value (AKR/J mice; [3]) was 0.47 ± 0.04 g, the “food intake compared to vehicle (in words)” value (AKR/J mice; first study, 300 mg/kg, three days after treatment) was “Significant suppression of food intake” and the “Ratio (fat/muscle)” value (AKR/J mice; first study, 300 mg/kg) was 7.42 ± 0.54. For the same molecule, the “Total stomach content, measured at the end of the study” value (AKR/J mice; first study, 300 mg/kg, vehicle 0.16±0.02 g, p<0.05) was 0.27 ± 0.05 g, the “weight loss or food intake suppression (in words)” value (AKR/J mice; second dose response study, 10, 30, and 100 mg/kg) was “no significant (P>0.05) weight loss or food intake suppression” and the “Total intake of high fat diet (g) Day 1-10” value (from here on “Total intake of high fat diet”) (AKR/J mice; [4]) was 28 ± 0.5 g. For the same molecule, the “Weight loss (g) Day 4” value (AKR/J mice; [4]) was 0.1 ± 0.1 g, the “Weight loss (g) Day 7” value (AKR/J mice; [4]) was 0.2 ± 0.2 g and the “Weight loss (g) Day 10” value (AKR/J mice; [4]) was 0.3 ± 0.3 g. For the same molecule, the “Total intake of high fat diet” value (AKR/J mice; [5]) was 28 ± 0.5 g, the “Weight loss (g) Day 4” value (AKR/J mice; [5]) was 0.1 ± 0.1 g and the “Weight loss (g) Day 7” value (AKR/J mice; [5]) was 0.0 ± 0.2 g. For the same molecule, the “Weight loss (g) Day 10” value (AKR/J mice; [5]) was -0.4 ± 0.2 g, the “Total intake of high fat diet” value (AKR/J mice; [6]) was 28 ± 0.6 g and the “Weight loss (g) Day 4” value (AKR/J mice; [6]) was 0.2 ± 0.1 g. The “Weight loss (g) Day 7” value (AKR/J mice; [6]) was 0.2 ± 0.3 g and the “Weight loss (g) Day 10” value (AKR/J mice; [6]) was 0.1 ± 0.2 g.

With `CC(C)CC(N(C)C)C1(c2ccc(Cl)cc2)CCC1` (stereo not shown) [Sibutramine, sibutramine, reference compound] the “food intake from day 0 to Day 3 (in words)” value (AKR/J mice; first study, 10 mg/kg) was “reduction of food intake”, the “weight after 3 days treatment (in words)” value (AKR/J mice; first study, 10 mg/kg) was “lost weight” and the “weight at the end of the study compared to control mice (in words)” value (AKR/J mice; first study, 10 mg/kg) was “no difference in weight”. The “Brown Adipose Tissue” value (AKR/J mice; [7]) was 0.14 ± 0.01 g, the “Epididymal fat” value (AKR/J mice; [7]) was 1.76 ± 0.11 g and the “Muscle” value (AKR/J mice; [7]) was 0.31 ± 0.01 g. The “Retroperitoneal fat” value (AKR/J mice; [7]) was 0.61 ± 0.07 g, the “Ratio (fat/muscle)” value (AKR/J mice; first study, 10 mg/kg) was 7.67 ± 0.59 and the “Intake of high fat diet (g) Day 0-3” value (AKR/J mice; [8]) was 6.5 ± 0.3 g. For the same molecule, the “Intake of high fat diet (g) Day 4-7” value (AKR/J mice; [8]) was 14.4 ± 0.7 g, the “Weight loss (g) Day 4” value (AKR/J mice; [8]) was -2.0 ± 0.2 g and the “Weight loss (g) Day 8” value (AKR/J mice; [8]) was -1.2 ± 0.4 g. The “Weight loss (g) Day 10” value (AKR/J mice; [8]) was -1.2 ± 0.5 g.
